26 molecules from patent US8883782B2, “Spiro-tetracyclic ring compounds as beta-secretase modulators and methods of use” (Amgen Inc., priority 2010, dated 2014) can be followed below.

Like-named read-outs stand apart in the source and are kept apart here. A value given as a limit tells only on which side of the number the result lay.

Experiment [1] has as its target Beta Secretase enzyme (BACE) (Homo sapiens, UniProt P56817). Description: In vitro enzymatic BACE FRET (fluorescence resonance energy transfer) assay. Particulars: average IC50, enzyme assay; read-out: BACE 1 FRET assay. In kind it is biochemical. The essentials:
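Fluorescence read after Tris quench to neutral pH. Reaction: 50 nM fluorophore/quencher peptide substrate, 1 h, in 0.05 M acetate pH 4.2, 10% DMSO final, 100 uM genapol.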

Experiment [2] deals with Aβ40 in conditioned medium of cells stably expressing Amyloid Precursor Protein (APP). Description: In vitro BACE cell-based assay (Aβ40 in conditioned medium, sandwich ELISA). Particulars: Homo sapiens, read-out: HEK cell assay. The essentials:
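Quantification relied on pAb40/6E10 sandwich ELISA with Europium fluorescence counts, and IC50 was fitted versus concentration.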
(In an ELISA, binding on a coated surface is turned into a signal by an enzyme label.)

Sequence of Beta Secretase enzyme (BACE) (P56817 46-501, species assumed): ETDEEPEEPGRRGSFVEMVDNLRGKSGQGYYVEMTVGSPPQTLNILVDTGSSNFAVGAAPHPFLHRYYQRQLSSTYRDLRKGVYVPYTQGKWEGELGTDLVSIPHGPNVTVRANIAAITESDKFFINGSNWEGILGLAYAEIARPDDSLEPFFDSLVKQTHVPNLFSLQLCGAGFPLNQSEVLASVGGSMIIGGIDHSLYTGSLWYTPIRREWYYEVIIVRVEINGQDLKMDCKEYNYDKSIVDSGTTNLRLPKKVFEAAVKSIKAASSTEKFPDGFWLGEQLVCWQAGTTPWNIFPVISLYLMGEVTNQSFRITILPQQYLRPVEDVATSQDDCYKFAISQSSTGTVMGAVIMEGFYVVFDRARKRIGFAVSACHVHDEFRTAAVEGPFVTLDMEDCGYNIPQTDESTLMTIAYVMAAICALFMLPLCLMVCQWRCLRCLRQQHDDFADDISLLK

As to `CC1(COc2cc(F)c3c(c2)[C@@]2(CSC(N)=N2)c2cc(-c4cccnc4F)ccc2O3)COC1` [Example 793, (4R)-4′-fluoro-7′-(2-fluoro-3-pyridinyl)-2′-((3-methyl-3-oxetanyl)methoxy)spiro[1,3-thiazole-4,9′-xanthen]-2-amine], the IC50 in experiment [1] came out at 180 nM; in experiment [2] (HEK293, average IC50) it was 4810 nM.

Regarding `CC1(COc2cc(F)c3c(c2)[C@]2(CSC(N)=N2)c2cc(-c4cccnc4F)ccc2O3)COC1` [Example 794, (4S)-4′-fluoro-7′-(2-fluoro-3-pyridinyl)-2′-((3-methyl-3-oxetanyl)methoxy)spiro[1,3-thiazole-4,9′-xanthen]-2-amine], the IC50 is 0.2 nM in experiment [1] and 6 nM in experiment [2] (HEK293, average IC50).

Consider `NC1=N[C@@]2(CS1)c1cc(-c3cccnc3)ccc1Oc1c(F)cc(C3=CCCOC3)cc12` [Example 795, (4S)-2′-(5,6-dihydro-2H-pyran-3-yl)-4′-fluoro-7′-(3-pyridinyl)spiro[1,3-thiazole-4,9′-xanthen]-2-amine], for which the IC50 in experiment [1] came to 0.5 nM; in experiment [2] (HEK293, average IC50), 10 nM.

For the molecule `NC1=N[C@@]2(CS1)c1cc(-c3cccnc3)ccc1Oc1c(F)cc(C3=CCOCC3)cc12` [Example 796, (4S)-2′-(3,6-dihydro-2H-pyran-4-yl)-4′-fluoro-7′-(3-pyridinyl)spiro[1,3-thiazole-4,9′-xanthen]-2-amine], the IC50 in experiment [1] is 0.5 nM; in experiment [2] (HEK293, average IC50), 8 nM.

Regarding `CC1(C)CC(=O)N(c2cc(F)c3c(c2)[C@]2(COC(N)=N2)c2cc(-c4cccnc4F)ccc2O3)C1` [Example 797, 1-((4S)-2-amino-4′-fluoro-7′-(2-fluoro-3-pyridinyl)spiro[1,3-oxazole-4,9′-xanthen]-2′-yl)-4,4-dimethyl-2-pyrrolidinone], the IC50 came to 0.6 nM in experiment [1] and 7 nM in experiment [2] (HEK293, average IC50).

For `CC1(C)CC(=O)N(c2cc(F)c3c(c2)[C@]2(COC(N)=N2)c2cc(-c4cccnc4)ccc2O3)C1` [Example 798, 1-((4S)-2-amino-4′-fluoro-7′-(3-pyridinyl)spiro[1,3-oxazole-4,9′-xanthen]-2′-yl)-4,4-dimethyl-2-pyrrolidinone], the IC50 in experiment [1] stood at 1.4 nM; in experiment [2] (HEK293, average IC50), 8 nM.

Take `NC1=N[C@@]2(CS1)c1cc(-c3cccnc3)ccc1Oc1c(F)cc(N3CCOCC3)cc12` [Example 799, (4S)-4′-fluoro-2′-(4-morpholinyl)-7′-(3-pyridinyl)spiro[1,3-thiazole-4,9′-xanthen]-2-amine]: the IC50 in experiment [1] was found to be 1.5 nM; in experiment [2] (HEK293, average IC50), 18 nM.

Take `CC(C)(C#N)COc1cc(F)c2c(c1)[C@]1(CSC(N)=N1)c1cc(-c3cccnc3F)ccc1O2` [Example 800, 3-(((4S)-2-amino-4′-fluoro-7′-(2-fluoro-3-pyridinyl)spiro[1,3-thiazole-4,9′-xanthen]-2′-yl)oxy)-2,2-dimethylpropanenitrile]: the IC50 is 0.4 nM in experiment [1] and 20 nM in experiment [2] (HEK293, average IC50).

Regarding `NC1=N[C@@]2(CO1)c1cc(-c3cccnc3F)ccc1Oc1c(F)cc(C3=CC(=O)OC3)cc12` [Example 801, 4-((4S)-2-amino-4′-fluoro-7′-(2-fluoro-3-pyridinyl)spiro[1,3-oxazole-4,9′-xanthen]-2′-yl)-2(5H)-furanone], the IC50 was found to be 2.2 nM in experiment [1] and 170 nM in experiment [2] (HEK293, average IC50).

As to `CC1(C)CC(c2cc(F)c3c(c2)[C@]2(COC(N)=N2)c2cc(-c4cccnc4F)ccc2O3)=CC(=O)O1` [Example 804, 4-((4S)-2-amino-4′-fluoro-7′-(2-fluoro-3-pyridinyl)spiro[1,3-oxazole-4,9′-xanthen]-2′-yl)-6,6-dimethyl-5,6-dihydro-2H-pyran-2-one], the IC50 in experiment [1] is 0.8 nM; in experiment [2] (HEK293, average IC50), 33 nM.

As for `NC1=N[C@@]2(CO1)c1cc(-c3cccnc3F)ccc1Oc1c(F)cc(C3=C(Cl)COCC3)cc12` [Example 805, (4S)-2′-(5-chloro-3,6-dihydro-2H-pyran-4-yl)-4′-fluoro-7′-(2-fluoro-3-pyridinyl)spiro[1,3-oxazole-4,9′-xanthen]-2-amine], the IC50 turned out to be 0.2 nM in experiment [1] and 3 nM in experiment [2] (HEK293, average IC50).

Consider `NC1=N[C@@]2(CO1)c1cc(-c3cccnc3F)ccc1Oc1c2cc(-c2ccccc2)nc1F` [Example 806, (S)-1-fluoro-7-(2-fluoropyridin-3-yl)-3-phenyl-5′H-spiro[chromeno[2,3-c]pyridine-5,4′-oxazol]-2′-amine], for which the IC50 turned out to be 1.5 nM in experiment [1] and 5 nM in experiment [2] (HEK293, average IC50, HEK cell assay).

With `Cc1ncncc1-c1ccc2c(c1)[C@@]1(COC(N)=N1)c1cc(C3=CCOCC3)ncc1O2` [Example 808, (5S)-3-(3,6-dihydro-2H-pyran-4-yl)-7-(4-methyl-5-pyrimidinyl)spiro[chromeno[2,3-c]pyridine-5,4′-[1,3]oxazol]-2′-amine], the IC50 in experiment [1] stood at 3 nM; in experiment [2] (HEK293, average IC50), 93 nM.

On to `Cc1ncncc1-c1ccc2c(c1)[C@@]1(COC(N)=N1)c1cc(-c3ccnc(F)c3)ncc1O2` [Example 809, (5S)-3-(2-fluoro-4-pyridinyl)-7-(4-methyl-5-pyrimidinyl)spiro[chromeno[2,3-c]pyridine-5,4′-[1,3]oxazol]-2′-amine], for which the IC50 in experiment [1] was found to be 8.3 nM; in experiment [2] (HEK293, average IC50), 518 nM.

As to `CC1(C#Cc2cncc(-c3ccc4c(c3)[C@@]3(COC(N)=N3)c3cc(Cl)ncc3O4)c2)COC1` [Example 810, (5S)-3-chloro-7-(5-((3-methyl-3-oxetanyl)ethynyl)-3-pyridinyl)spiro[chromeno[2,3-c]pyridine-5,4′-[1,3]oxazol]-2′-amine], the IC50 in experiment [1] was 604 nM; in experiment [2] (HEK293, average IC50) it was ≥ 10000 nM.

On to `CC1(C#Cc2cncc(-c3ccc4c(c3)[C@@]3(COC(N)=N3)c3cc(-c5ccnc(F)c5)ncc3O4)c2)COC1` [Example 812, (5S)-3-(2-fluoro-4-pyridinyl)-7-(5-((3-methyl-3-oxetanyl)ethynyl)-3-pyridinyl)spiro[chromeno[2,3-c]pyridine-5,4′-[1,3]oxazol]-2′-amine], for which the IC50 in experiment [1] turned out to be 5.5 nM; in experiment [2] (HEK293, average IC50), 460 nM.

Take `CC1(C#Cc2cncc(-c3ccc4c(c3)[C@@]3(COC(N)=N3)c3cc(C5=CCCOC5)ncc3O4)c2)COC1` [Example 813, (5S)-3-(5,6-dihydro-2H-pyran-3-yl)-7-(5-((3-methyl-3-oxetanyl)ethynyl)-3-pyridinyl)spiro[chromeno[2,3-c]pyridine-5,4′-[1,3]oxazol]-2′-amine]: the IC50 stood at 2.5 nM in experiment [1] and 53 nM in experiment [2] (HEK293, average IC50).

Take `NC1=N[C@@]2(CO1)c1cc(-c3cncc(C#CC4CC4)c3)ccc1Oc1cnc(-c3ccnc(F)c3)cc12` [Example 815, (5S)-7-(5-(cyclopropylethynyl)-3-pyridinyl)-3-(2-fluoro-4-pyridinyl)spiro[chromeno[2,3-c]pyridine-5,4′-[1,3]oxazol]-2′-amine]: the IC50 in experiment [1] was 1.9 nM; in experiment [2] (HEK293, average IC50), 699 nM.

Consider `CC(C)(O)C#Cc1cncc(-c2ccc3c(c2)[C@@]2(COC(N)=N2)c2cc(-c4ccnc(F)c4)ncc2O3)c1` [Example 817, 4-(5-((5S)-2′-amino-3-(2-fluoro-4-pyridinyl)spiro[chromeno[2,3-c]pyridine-5,4′-[1,3]oxazol]-7-yl)-3-pyridinyl)-2-methyl-3-butyn-2-ol], for which the IC50 in experiment [1] was determined as 13.5 nM; in experiment [2] (HEK293, average IC50), 1480 nM.

As for `CC(C)(O)C#Cc1cncc(-c2ccc3c(c2)[C@@]2(COC(N)=N2)c2cc(C4=CCOCC4)ncc2O3)c1` [Example 818, 4-(5-((5S)-2′-amino-3-(3,6-dihydro-2H-pyran-4-yl)spiro[chromeno[2,3-c]pyridine-5,4′-[1,3]oxazol]-7-yl)-3-pyridinyl)-2-methyl-3-butyn-2-ol], the IC50 was 4.9 nM in experiment [1] and 152 nM in experiment [2] (HEK293, average IC50).

For the molecule `CC(C)(O)C#Cc1cncc(-c2ccc3c(c2)[C@@]2(COC(N)=N2)c2cc(C4=CCCOC4)ncc2O3)c1` [Example 819, 4-(5-((5S)-2′-amino-3-(5,6-dihydro-2H-pyran-3-yl)spiro[chromeno[2,3-c]pyridine-5,4′-[1,3]oxazol]-7-yl)-3-pyridinyl)-2-methyl-3-butyn-2-ol], the IC50 came to 5.2 nM in experiment [1] and 238 nM in experiment [2] (HEK293, average IC50).

As to `COc1cc(F)c2c(c1)[C@]1(COC(N)=N1)c1cc(-c3cncc(C#CCO)c3)ccc1O2` [Example 820, 3-(5-((4S)-2-amino-5′-fluoro-7′-methoxyspiro[1,3-oxazole-4,9′-xanthen]-2′-yl)-3-pyridinyl)-2-propyn-1-ol], the IC50 in experiment [1] was found to be 1.1 nM; in experiment [2] (HEK293, average IC50), 21 nM.

As for `COc1cc(F)c2c(c1)[C@]1(COC(N)=N1)c1cc(-c3cncc(C#CC4(C)COC4)c3)ccc1O2` [Example 821, (4S)-4′-fluoro-2′-methoxy-7′-(5-((3-methyl-3-oxetanyl)ethynyl)-3-pyridinyl)spiro[1,3-oxazole-4,9′-xanthen]-2-amine], the IC50 in experiment [1] was determined as 51.4 nM; in experiment [2] (HEK293, average IC50) it was 2900 nM.

In the case of `COc1cc(F)c2c(c1)[C@]1(COC(N)=N1)c1cc(-c3cncc(C#CC(C)(C)O)c3)ccc1O2` [Example 822, 4-(5-((4S)-2-amino-5′-fluoro-7′-methoxyspiro[1,3-oxazole-4,9′-xanthen]-2′-yl)-3-pyridinyl)-2-methyl-3-butyn-2-ol], the IC50 was 93.3 nM in experiment [1] and 3000 nM in experiment [2] (HEK293, average IC50).

As for `COc1cc(F)c2c(c1)[C@]1(COC(N)=N1)c1cc(-c3cncc(C#CC(C)(C)OC)c3)ccc1O2` [Example 823, (4S)-4′-fluoro-2′-methoxy-7′-(5-(3-methoxy-3-methyl-1-butyn-1-yl)-3-pyridinyl)spiro[1,3-oxazole-4,9′-xanthen]-2-amine], the IC50 in experiment [1] amounted to 101 nM; in experiment [2] (HEK293, average IC50), 4300 nM.

With `CC#Cc1cncc(-c2ccc3c(c2)[C@@]2(COC(N)=N2)c2cc(OC)cc(F)c2O3)c1` [Example 824, (4S)-4′-fluoro-2′-methoxy-7′-(5-(1-propyn-1-yl)-3-pyridinyl)spiro[1,3-oxazole-4,9′-xanthen]-2-amine], the IC50 in experiment [1] came out at 0.2 nM; in experiment [2] (HEK293, average IC50), 20 nM.
